The source of these data is PubChem BioAssay AID256 (DTP/NCI, 2004).

Structures are written as SMILES. “And” between values parts separate entries of the source, which are not always exact repeats. Equal values may be shown once. Toxic doses and inconclusive results are not listed.

The subject of this assay is CD2F1 mice, L1210 leukemia ip, survival T/C. The assay can be described thus: NCI In Vivo Anticancer Drug Screen. Data for tumor model L1210 Leukemia (intraperitoneal) in CD2F1 (CDF1) mice. To be noted: higher = longer survival. An outline of the steps:
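Read-out first: treated-group measurement over vehicle-control measurement, expressed as a ratio. Animals bore a transplanted tumor line and were dosed with compound or vehicle.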

The mark [1] stands for this setting: endpoint: mean survival time, dose: 100.0 mg/kg/injection, schedule: Q04DX003 (ip), vehicle: saline with Tween-80.
[2] abbreviates: endpoint: mean survival time, dose: 200.0 mg/kg/injection, schedule: Q04DX003 (ip), vehicle: saline with Tween-80.
Setting [3] is: endpoint: mean survival time, dose: 25.0 mg/kg/injection, schedule: Q01DX009 (ip), vehicle: saline with Tween-80.
The mark [4] stands for this setting: endpoint: mean survival time, dose: 50.0 mg/kg/injection, schedule: Q01DX009 (ip), vehicle: saline with Tween-80.
The mark [5] stands for this setting: endpoint: mean survival time, dose: 100.0 mg/kg/injection, schedule: Q01DX009 (ip), vehicle: saline with Tween-80.
Setting [6] is: endpoint: mean survival time, dose: 200.0 mg/kg/injection, schedule: Q01DX009 (ip), vehicle: saline with Tween-80.
[7] abbreviates: endpoint: mean survival time, dose: 400.0 mg/kg/injection, schedule: Q01DX009 (ip), vehicle: saline with Tween-80.
[8] abbreviates: endpoint: mean survival time, dose: 400.0 mg/kg/injection, schedule: Q04DX003 (ip), vehicle: saline with Tween-80.
Setting [9] is: endpoint: mean survival time, dose: 75.0 mg/kg/injection, schedule: Q01DX001 (ip), vehicle: saline.
[10] abbreviates: endpoint: mean survival time, dose: 300.0 mg/kg/injection, schedule: Q01DX001 (ip), vehicle: saline.

Regarding `COC(CNC1=C(C)C(=O)C2=C(C1=O)[C@H](COC(N)=O)[C@]1(OC)[C@@H]3N[C@@H]3CN21)OC`, the T/C is, setting by setting: (endpoint: mean survival time, dose: 1.5 mg/kg/injection, schedule: Q01DX001 (ip), vehicle: water) 118 % of control; (endpoint: mean survival time, dose: 3.0 mg/kg/injection, schedule: Q01DX001 (ip), vehicle: water) 119 % of control and 109 % of control; (endpoint: mean survival time, dose: 6.0 mg/kg/injection, schedule: Q01DX001 (ip), vehicle: water) 119 % of control; (endpoint: mean survival time, dose: 24.0 mg/kg/injection, schedule: Q01DX001 (ip), vehicle: water) 151 % of control and 296 % of control; (endpoint: mean survival time, dose: 48.0 mg/kg/injection, schedule: Q01DX001 (ip), vehicle: water) 86 % of control.
With `O=C(/C(Br)=C/c1ccccc1)c1ccccc1`, the T/C (endpoint: mean survival time, dose: 100.0 mg/kg/injection, schedule: Q04DX003 (ip), vehicle: other) was 103 % of control and the T/C (endpoint: mean survival time, dose: 200.0 mg/kg/injection, schedule: Q04DX003 (ip), vehicle: other) was 105 % of control.
For `O=Cc1ccccc1O.O=Cc1ccccc1O.O=Cc1ccccc1O.[La]`, the T/C by setting is: under setting [1], 89 % of control; under setting [2], 98 % of control.
As for `Brc1nc(Br)c(Br)[nH]1`, the T/C runs as follows: under setting [3], 86 % of control; under setting [4], 95 % of control; under setting [5], 92 % of control; under setting [1], 100 % of control.
Take `NNC(=O)c1ccc(C(=O)NN)cc1`: the T/C was 91 % of control (endpoint: mean survival time, dose: 100.0 mg/kg/injection, schedule: Q01DX001 (ip), vehicle: Klucel (hydroxypropylcellulose) (HPC)); 97 % of control under setting [5]; 94 % of control under setting [1]; 100 % of control (endpoint: mean survival time, dose: 200.0 mg/kg/injection, schedule: Q01DX001 (ip), vehicle: Klucel (hydroxypropylcellulose) (HPC)); 107 % of control under setting [6]; 96 % of control under setting [2]. In addition, the T/C by setting is: (endpoint: mean survival time, dose: 400.0 mg/kg/injection, schedule: Q01DX001 (ip), vehicle: Klucel (hydroxypropylcellulose) (HPC)) 88 % of control; under setting [7], 104 % of control; under setting [8], 96 % of control.
Take `CC(=O)N(C)C`: the T/C by setting is: (endpoint: mean survival time, dose: 62.0 mg/kg/injection, schedule: Q01DX Z (ip), vehicle: saline) 92 % of control; (endpoint: mean survival time, dose: 112.0 mg/kg/injection, schedule: Q01DX009 (ip), vehicle: saline) 100 % of control; (endpoint: mean survival time, dose: 122.5 mg/kg/injection, schedule: Q01DX009 (ip), vehicle: saline) 91 % of control; (endpoint: mean survival time, dose: 125.0 mg/kg/injection, schedule: Q01DX Z (ip), vehicle: saline) 96 % of control; (endpoint: mean survival time, dose: 225.0 mg/kg/injection, schedule: Q01DX009 (ip), vehicle: saline) 95 % of control and 97 % of control; (endpoint: mean survival time, dose: 250.0 mg/kg/injection, schedule: Q01DX Z (ip), vehicle: saline) 92 % of control. Moreover, the T/C was 101 % of control and 103 % of control (endpoint: mean survival time, dose: 450.0 mg/kg/injection, schedule: Q01DX009 (ip), vehicle: saline); 102 % of control (endpoint: mean survival time, dose: 500.0 mg/kg/injection, schedule: Q01DX Z (ip), vehicle: saline); 89 % of control and 90 % of control (endpoint: mean survival time, dose: 900.0 mg/kg/injection, schedule: Q01DX009 (ip), vehicle: saline); 117 % of control and 112 % of control (endpoint: mean survival time, dose: 1800.0 mg/kg/injection, schedule: Q01DX009 (ip), vehicle: saline).
Regarding `COc1ccc(/C=N/O)cc1`, the T/C was 102 % of control under setting [9]; 100 % of control (endpoint: mean survival time, dose: 150.0 mg/kg/injection, schedule: Q01DX001 (ip), vehicle: saline); 101 % of control under setting [10].
As for `CN(C)c1cccc(C(C)(C)C)n1`, the T/C is, setting by setting: (endpoint: mean survival time, dose: 12.5 mg/kg/injection, schedule: Q04DX002 (ip), vehicle: saline) 98 % of control; (endpoint: mean survival time, dose: 25.0 mg/kg/injection, schedule: Q04DX002 (ip), vehicle: saline) 106 % of control; (endpoint: mean survival time, dose: 50.0 mg/kg/injection, schedule: Q04DX002 (ip), vehicle: saline) 95 % of control.
Turning to `CCCCCCCCCCCC[n+]1c(C)cc(N)c2ccccc21`, the T/C is, setting by setting: (endpoint: mean survival time, dose: 1.25 mg/kg/injection, schedule: Q01DX001 (ip), vehicle: other) 103 % of control; (endpoint: mean survival time, dose: 5.0 mg/kg/injection, schedule: Q01DX001 (ip), vehicle: other) 101 % of control.
`CC1(O)C=CC(=O)C=C1`: the T/C was 91 % of control (endpoint: median survival time, dose: 6.25 mg/kg/injection, schedule: Q01DX009 (ip), vehicle: water); 103 % of control (endpoint: median survival time, dose: 12.5 mg/kg/injection, schedule: Q01DX009 (ip), vehicle: water); 122 % of control (endpoint: median survival time, dose: 25.0 mg/kg/injection, schedule: Q01DX009 (ip), vehicle: water); 91 % of control (endpoint: median survival time, dose: 50.0 mg/kg/injection, schedule: Q01DX009 (ip), vehicle: water).
For the molecule `CC(=O)Oc1ccc2ncccc2c1Cc1c(OC(C)=O)ccc2ncccc12`, the T/C runs as follows: under setting [9], 90 % of control; under setting [10], 91 % of control.
In the case of `CCC1=C[C@H]2CN(CCc3c([nH]c4ccccc34)[C@@](C(=O)OC)(c3cc4c(cc3OC)N(C)[C@H]3[C@@](O)(C(=O)NC)[C@H](OC(C)=O)[C@]5(CC)C=CCN6CC[C@]43[C@@H]65)C2)C1`, the T/C (endpoint: mean survival time, dose: 0.03 mg/kg/injection, schedule: Q01DX009 (ip), vehicle: water) is 101 % of control and the T/C (endpoint: mean survival time, dose: 0.06 mg/kg/injection, schedule: Q01DX009 (ip), vehicle: water) is 111 % of control.
For the molecule `CN1CCN(c2ccccc2)CC1`, the T/C (endpoint: mean survival time, dose: 100.0 mg/kg/injection, schedule: Q01DX001 (ip), vehicle: saline) is 112 % of control.
As for `N#CC(C#N)=CN1CCCC1`, the T/C is, setting by setting: (endpoint: mean survival time, dose: 5.0 mg/kg/injection, schedule: Q01DX001 (ip), vehicle: saline with Tween-80) 100 % of control; (endpoint: mean survival time, dose: 10.0 mg/kg/injection, schedule: Q01DX001 (ip), vehicle: saline with Tween-80) 102 % of control; (endpoint: mean survival time, dose: 20.0 mg/kg/injection, schedule: Q01DX001 (ip), vehicle: saline with Tween-80) 93 % of control.
As for `O=[N+]([O-])/C=C\c1ccc2c(c1)OCO2`, the T/C is, setting by setting: under setting [1], 101 % of control; under setting [2], 93 % of control; under setting [8], 90 % of control.
For `CCN(CC)CCOc1ccc(/C(=C(\Cl)c2ccccc2)c2ccccc2)cc1`, the T/C (endpoint: mean survival time, dose: 3.12 mg/kg/injection, schedule: Q04DX003 (ip), vehicle: saline with Tween-80) was 100 % of control; the T/C (endpoint: mean survival time, dose: 3.13 mg/kg/injection, schedule: Q01DX009 (ip), vehicle: saline with Tween-80) is 104 % of control; the T/C (endpoint: mean survival time, dose: 6.25 mg/kg/injection, schedule: Q01DX009 (ip), vehicle: saline with Tween-80) was 102 % of control; the T/C (endpoint: mean survival time, dose: 6.25 mg/kg/injection, schedule: Q04DX003 (ip), vehicle: saline with Tween-80) is 94 % of control; the T/C (endpoint: mean survival time, dose: 12.5 mg/kg/injection, schedule: Q01DX009 (ip), vehicle: saline with Tween-80) was 105 % of control; the T/C (endpoint: mean survival time, dose: 12.5 mg/kg/injection, schedule: Q04DX003 (ip), vehicle: saline with Tween-80) was 97 % of control. Moreover, the T/C is 107 % of control under setting [3]; 97 % of control (endpoint: mean survival time, dose: 25.0 mg/kg/injection, schedule: Q04DX003 (ip), vehicle: saline with Tween-80); 91 % of control under setting [4]; 100 % of control (endpoint: mean survival time, dose: 50.0 mg/kg/injection, schedule: Q04DX003 (ip), vehicle: saline with Tween-80); 105 % of control under setting [1].
Regarding `CCC(C(=N)C#N)[N+](=O)[O-]` (stereo not drawn), the T/C runs as follows: (endpoint: mean survival time, dose: 100.0 mg/kg/injection, schedule: Q04DX002 (ip), vehicle: saline) 91 % of control; (endpoint: mean survival time, dose: 200.0 mg/kg/injection, schedule: Q04DX002 (ip), vehicle: saline) 95 % of control; (endpoint: mean survival time, dose: 400.0 mg/kg/injection, schedule: Q04DX002 (ip), vehicle: saline) 91 % of control.
Turning to `Nc1cccc(/C=C/c2cccc([N+](=O)[O-])c2)c1`, the T/C was 98 % of control (endpoint: mean survival time, dose: 100.0 mg/kg/injection, schedule: Q04DX002 (ip), vehicle: Klucel (hydroxypropylcellulose) (HPC)); 103 % of control (endpoint: mean survival time, dose: 200.0 mg/kg/injection, schedule: Q04DX002 (ip), vehicle: Klucel (hydroxypropylcellulose) (HPC)); 103 % of control (endpoint: mean survival time, dose: 400.0 mg/kg/injection, schedule: Q04DX002 (ip), vehicle: Klucel (hydroxypropylcellulose) (HPC)).
Regarding `Cc1ccc(S(=O)(=O)OCC2OCOC(COS(=O)(=O)c3ccc(C)cc3)C(O)C2O)cc1` (stereo not drawn), the T/C under setting [5] is 101 % of control, the T/C under setting [6] is 98 % of control and the T/C under setting [7] is 96 % of control.
For `O=[N+]([O-])c1cccc(S(=O)(=O)Oc2ccc(-c3ccccc3)cc2)c1`, in that order: 87 % of control, 91 % of control and 89 % of control.
